Earlier results on 1 molecule are cited in publication PMC9851200, “Multiparameter phenotypic screening for endogenous TFEB and TFE3 translocation identifies novel chemical series modulating lysosome function” (Autophagy, 2022).

Set-up in all cases: method as in original PKIS2 published data
Data set [1] addresses kinases (KINOMEscan panel) (Homo sapiens, UniProt Q9HC98). The settings on record: kinase NEK6; Published KINOMEscan; ref original PKIS2 published data; cited from earlier work.
The target in data set [2] is T1, kinases (KINOMEscan panel) (Homo sapiens, UniProt Q99640).
T1 sequence (Q99640 1-499): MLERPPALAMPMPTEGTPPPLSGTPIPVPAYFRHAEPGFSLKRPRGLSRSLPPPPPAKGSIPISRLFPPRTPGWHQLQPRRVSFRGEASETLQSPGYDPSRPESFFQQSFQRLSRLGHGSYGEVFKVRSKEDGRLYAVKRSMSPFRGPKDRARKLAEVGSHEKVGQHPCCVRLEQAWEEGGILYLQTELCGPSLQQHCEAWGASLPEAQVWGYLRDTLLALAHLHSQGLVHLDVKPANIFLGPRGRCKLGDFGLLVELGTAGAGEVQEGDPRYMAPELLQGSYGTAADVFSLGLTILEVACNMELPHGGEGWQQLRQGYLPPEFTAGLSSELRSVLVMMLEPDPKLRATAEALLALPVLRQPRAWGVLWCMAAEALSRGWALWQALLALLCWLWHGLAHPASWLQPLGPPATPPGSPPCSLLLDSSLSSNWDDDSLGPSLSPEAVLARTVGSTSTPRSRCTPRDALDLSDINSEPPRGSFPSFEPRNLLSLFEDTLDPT
The settings on record: kinase PKMYT1; Published KINOMEscan; ref original PKIS2 published data; cited from earlier work.

For data set [3], the target named is kinases (KINOMEscan panel) (Homo sapiens, UniProt Q86Y07). Particulars: Published KINOMEscan; ref original PKIS2 published data; cited from earlier work.
The target in data set [4] is kinases (KINOMEscan panel) (Homo sapiens, UniProt P17612). The settings on record: kinase PRKACA; Published KINOMEscan; ref original PKIS2 published data; cited from earlier work.
The target in data set [5] is T2, kinases (KINOMEscan panel) (Homo sapiens, UniProt Q9NWZ3).
T2 sequence (Q9NWZ3 1-460): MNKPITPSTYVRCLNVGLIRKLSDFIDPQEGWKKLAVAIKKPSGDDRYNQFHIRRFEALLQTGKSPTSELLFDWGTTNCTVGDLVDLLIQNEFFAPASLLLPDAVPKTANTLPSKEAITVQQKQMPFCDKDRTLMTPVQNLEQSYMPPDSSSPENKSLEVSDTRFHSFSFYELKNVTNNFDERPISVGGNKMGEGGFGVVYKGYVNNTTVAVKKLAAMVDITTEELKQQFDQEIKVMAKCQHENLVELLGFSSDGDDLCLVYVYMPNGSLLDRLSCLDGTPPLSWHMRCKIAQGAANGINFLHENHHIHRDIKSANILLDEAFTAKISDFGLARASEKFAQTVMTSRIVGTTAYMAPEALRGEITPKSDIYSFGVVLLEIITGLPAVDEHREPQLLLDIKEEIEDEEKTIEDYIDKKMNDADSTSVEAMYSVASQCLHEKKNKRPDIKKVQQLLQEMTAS
Particulars: IRAK4; Published KINOMEscan; ref original PKIS2 published data; cited from earlier work.

Data set [6] deals with kinases (KINOMEscan panel) (Homo sapiens, UniProt Q9UEW8). Particulars: Published KINOMEscan; ref original PKIS2 published data; cited from earlier work.
The target in data set [7] is kinases (KINOMEscan panel) (Homo sapiens, UniProt Q08345). Particulars: DDR1; Published KINOMEscan; ref original PKIS2 published data; cited from earlier work.
In data set [8] the target is kinases (KINOMEscan panel) (Homo sapiens, UniProt P49761). The settings on record: CLK3; Published KINOMEscan; ref original PKIS2 published data; cited from earlier work.
Data set [9] deals with kinases (KINOMEscan panel) (Homo sapiens, UniProt Q96GD4). The settings on record: kinase AURKB; Published KINOMEscan; ref original PKIS2 published data; cited from earlier work.
The target of data set [10] is T3, kinases (KINOMEscan panel) (Homo sapiens, UniProt P54762).
T3 sequence (P54762 18-984): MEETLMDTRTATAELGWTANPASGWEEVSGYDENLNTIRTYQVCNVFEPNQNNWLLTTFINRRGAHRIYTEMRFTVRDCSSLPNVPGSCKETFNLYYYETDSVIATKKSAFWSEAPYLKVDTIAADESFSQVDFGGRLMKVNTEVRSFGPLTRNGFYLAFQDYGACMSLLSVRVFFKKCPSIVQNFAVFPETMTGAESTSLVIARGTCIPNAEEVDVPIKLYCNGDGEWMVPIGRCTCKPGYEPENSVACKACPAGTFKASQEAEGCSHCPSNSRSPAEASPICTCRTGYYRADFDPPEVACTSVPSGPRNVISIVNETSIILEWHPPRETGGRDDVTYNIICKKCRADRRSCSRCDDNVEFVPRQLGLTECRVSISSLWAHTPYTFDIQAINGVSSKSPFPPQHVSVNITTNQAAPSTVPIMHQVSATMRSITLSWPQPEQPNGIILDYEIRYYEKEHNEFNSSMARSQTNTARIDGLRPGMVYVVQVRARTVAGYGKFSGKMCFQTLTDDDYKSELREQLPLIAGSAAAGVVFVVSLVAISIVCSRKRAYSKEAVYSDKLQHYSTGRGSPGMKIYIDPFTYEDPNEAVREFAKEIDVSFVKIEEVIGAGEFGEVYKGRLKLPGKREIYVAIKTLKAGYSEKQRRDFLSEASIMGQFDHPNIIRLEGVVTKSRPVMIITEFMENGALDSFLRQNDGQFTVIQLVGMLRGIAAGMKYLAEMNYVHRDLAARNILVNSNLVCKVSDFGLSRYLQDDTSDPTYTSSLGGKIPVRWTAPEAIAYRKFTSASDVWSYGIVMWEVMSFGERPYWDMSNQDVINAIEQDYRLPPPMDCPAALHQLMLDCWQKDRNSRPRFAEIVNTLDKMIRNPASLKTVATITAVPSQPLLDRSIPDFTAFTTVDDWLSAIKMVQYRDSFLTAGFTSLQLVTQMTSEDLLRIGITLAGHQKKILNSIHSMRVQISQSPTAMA
The settings on record: kinase EPHB1; Published KINOMEscan; ref original PKIS2 published data; cited from earlier work.

Sequence of kinases (KINOMEscan panel) (Homo sapiens, UniProt Q86Y07) (Q86Y07 whole entry): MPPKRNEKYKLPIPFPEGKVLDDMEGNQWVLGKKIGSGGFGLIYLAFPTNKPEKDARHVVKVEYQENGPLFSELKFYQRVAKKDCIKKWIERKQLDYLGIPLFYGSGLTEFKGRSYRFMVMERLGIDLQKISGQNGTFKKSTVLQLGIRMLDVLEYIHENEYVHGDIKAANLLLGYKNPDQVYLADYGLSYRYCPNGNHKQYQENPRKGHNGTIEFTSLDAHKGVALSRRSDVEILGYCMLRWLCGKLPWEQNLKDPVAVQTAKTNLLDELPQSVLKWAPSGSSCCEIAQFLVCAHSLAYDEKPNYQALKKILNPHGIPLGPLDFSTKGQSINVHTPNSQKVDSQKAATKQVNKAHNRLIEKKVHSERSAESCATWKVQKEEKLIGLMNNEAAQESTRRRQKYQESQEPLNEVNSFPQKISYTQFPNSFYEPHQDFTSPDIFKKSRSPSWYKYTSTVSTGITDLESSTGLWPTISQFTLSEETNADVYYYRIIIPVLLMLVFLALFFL
Sequence of kinases (KINOMEscan panel) (Homo sapiens, UniProt P49761) (P49761 whole entry): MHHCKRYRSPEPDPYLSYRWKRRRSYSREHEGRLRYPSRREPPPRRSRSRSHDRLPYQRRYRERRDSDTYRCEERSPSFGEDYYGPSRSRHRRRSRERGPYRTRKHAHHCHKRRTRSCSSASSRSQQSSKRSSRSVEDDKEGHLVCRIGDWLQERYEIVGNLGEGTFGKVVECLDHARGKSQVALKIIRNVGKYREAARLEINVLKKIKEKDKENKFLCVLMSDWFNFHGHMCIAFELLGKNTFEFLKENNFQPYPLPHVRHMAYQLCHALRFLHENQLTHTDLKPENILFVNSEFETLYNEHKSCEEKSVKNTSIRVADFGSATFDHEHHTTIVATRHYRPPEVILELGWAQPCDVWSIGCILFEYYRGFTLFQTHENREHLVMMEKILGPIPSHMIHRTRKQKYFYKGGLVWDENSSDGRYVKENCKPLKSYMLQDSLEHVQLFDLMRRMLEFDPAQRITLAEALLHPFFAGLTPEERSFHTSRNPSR
Sequence of kinases (KINOMEscan panel) (Homo sapiens, UniProt Q08345) (Q08345 19-913): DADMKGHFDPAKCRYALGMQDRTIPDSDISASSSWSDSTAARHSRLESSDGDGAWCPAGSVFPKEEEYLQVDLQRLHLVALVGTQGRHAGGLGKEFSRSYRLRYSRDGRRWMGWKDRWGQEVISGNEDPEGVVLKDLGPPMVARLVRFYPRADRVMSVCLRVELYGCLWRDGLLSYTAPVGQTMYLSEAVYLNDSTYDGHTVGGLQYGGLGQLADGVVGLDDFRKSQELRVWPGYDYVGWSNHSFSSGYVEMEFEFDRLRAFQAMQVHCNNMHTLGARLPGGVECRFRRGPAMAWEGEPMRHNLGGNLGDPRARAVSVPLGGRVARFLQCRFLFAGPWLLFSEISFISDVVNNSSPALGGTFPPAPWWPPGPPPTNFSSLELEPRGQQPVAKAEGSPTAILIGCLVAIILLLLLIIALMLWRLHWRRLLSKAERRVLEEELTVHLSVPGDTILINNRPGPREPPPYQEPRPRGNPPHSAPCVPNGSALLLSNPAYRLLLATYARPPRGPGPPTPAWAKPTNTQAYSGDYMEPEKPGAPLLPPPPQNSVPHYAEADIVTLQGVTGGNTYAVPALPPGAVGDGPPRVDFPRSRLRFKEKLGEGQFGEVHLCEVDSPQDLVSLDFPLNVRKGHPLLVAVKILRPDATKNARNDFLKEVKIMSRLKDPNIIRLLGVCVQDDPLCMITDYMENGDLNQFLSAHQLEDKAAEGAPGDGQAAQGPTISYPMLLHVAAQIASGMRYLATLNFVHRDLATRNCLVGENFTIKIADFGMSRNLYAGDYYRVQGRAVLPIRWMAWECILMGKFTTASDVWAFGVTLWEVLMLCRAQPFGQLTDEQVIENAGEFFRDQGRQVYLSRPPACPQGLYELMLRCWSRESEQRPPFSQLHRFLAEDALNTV
Sequence of kinases (KINOMEscan panel) (Homo sapiens, UniProt Q9HC98) (Q9HC98 whole entry): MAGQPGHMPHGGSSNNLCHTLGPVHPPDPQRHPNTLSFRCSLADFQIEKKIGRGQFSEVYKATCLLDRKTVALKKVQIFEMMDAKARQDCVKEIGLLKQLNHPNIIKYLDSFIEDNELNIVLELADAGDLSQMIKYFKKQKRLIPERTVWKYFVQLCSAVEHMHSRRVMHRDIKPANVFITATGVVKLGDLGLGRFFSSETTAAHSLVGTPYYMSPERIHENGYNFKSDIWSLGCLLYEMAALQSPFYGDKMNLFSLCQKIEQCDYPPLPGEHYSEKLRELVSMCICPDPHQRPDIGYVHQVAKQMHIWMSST
Sequence of kinases (KINOMEscan panel) (Homo sapiens, UniProt Q96GD4) (Q96GD4 whole entry): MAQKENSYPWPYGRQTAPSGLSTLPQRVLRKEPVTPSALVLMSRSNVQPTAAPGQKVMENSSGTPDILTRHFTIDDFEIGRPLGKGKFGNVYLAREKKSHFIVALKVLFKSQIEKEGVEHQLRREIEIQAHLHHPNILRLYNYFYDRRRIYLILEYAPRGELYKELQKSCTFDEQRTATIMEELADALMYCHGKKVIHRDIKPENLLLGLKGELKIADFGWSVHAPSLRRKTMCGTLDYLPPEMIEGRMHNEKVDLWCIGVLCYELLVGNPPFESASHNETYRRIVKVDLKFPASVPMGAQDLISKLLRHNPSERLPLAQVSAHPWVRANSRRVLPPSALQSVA

As to `Cc1cccc(-c2nc(Nc3ccncc3)c3ccccc3n2)n1` [NK215], the “KINOMEscan NEK6” value in data set [1] was 21. For the same molecule, the “KINOMEscan PKMYT1” value in data set [2] is listed as 0. For the same molecule, the “KINOMEscan VRK2” value in data set [3] is 0. Besides, in [4], the “KINOMEscan PRKACA” value is on record as 23. Also, in data set [5], the “KINOMEscan IRAK4” value is reported as 0. The “KINOMEscan STK39” value in [6] was 0. Moreover, the “KINOMEscan DDR1” value in [7] is reported as 30. The “KINOMEscan CLK3” value in data set [8] was 31. In addition, the “KINOMEscan AURKB” value in [9] is 10. Further, the “KINOMEscan EPHB1” value in data set [10] is recorded as 3.
